The target in this experiment is T1, RhoA (Homo sapiens, UniProt P61586).
T1 construct: residues 1–193
In words: […] HSQC chemical shift perturbation titration; also STD and WaterLOGSY fragment screening. The experiment is classed as binding.

SMILES strings stand for the structures.

T1 sequence (P61586 whole entry, the tested form may be a part): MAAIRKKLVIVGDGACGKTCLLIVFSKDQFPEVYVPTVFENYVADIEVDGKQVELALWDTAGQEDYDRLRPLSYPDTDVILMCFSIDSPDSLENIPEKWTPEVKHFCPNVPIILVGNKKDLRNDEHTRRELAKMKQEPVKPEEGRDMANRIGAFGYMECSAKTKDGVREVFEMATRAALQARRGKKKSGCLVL

On to `c1ccc(COC2CNC2)cc1` [R1], for which the dissociation constant (Kd) (as a rule, the constant that tells how readily two partners part at equilibrium) turned out to be 110 µM.

(Values after paper PMC3914932, “Automated NMR Fragment Based Screening Identified a Novel Interface Blocker to the LARG/RhoA Complex” (PLoS ONE, 2014).)
